The record followed here is patent US12173026B2, “PRMT5 inhibitors” (Merck Sharp & Dohme LLC, priority 2018, dated 2024).

The subject of this assay is symmetric dimethylation of arginine (SDMA) of PRMT5 substrates in MCF-7 cells. As to the kind of experiment: PRMT5 Cell Target Engagement (TE) Assay. It counts as cell-based. As to conditions: Homo sapiens, MCF7, 72 h; MCF-7 cells treated for 3 days; nuclear SDMA by high content imaging; top concentration 10000 nM. An excerpt: PRMT5 Cell Target Engagement (TE) Assay
The PRMT5 TE assay is a biomarker assay for identifying compounds that inhibit symmetric dimethylation of arginine (SDMA) of PRMT5 substrates. The following substrates have been reported for PRMT5: Histone H2A and H4 R3, Histone H3 R2, Histone 1-13 R8, spliceosome Sm proteins, ribosomal protein RPS10, p53, FEN1, nucleoplasmin, nucleolin, EGFR and EBNA. The assay will focus on detecting symnetrically dimethylated nuclear proteins using high content imaging technology. Detection of the expression of symmetrically dimethylated nuclear proteins is through a mixture of primary rabbit monoclonal antibodies to SDMA (CST 13222) which in turn recognized by an Alexafluor 488 dye-conjugated anti-rabbit IgG secondary antibody. The IN Cell Analyzer 2200 or Opera-Phenix measures nuclear Alexafluor 488 fluorescent dye intensity that is directly related to the level of expression of symmetrically dimethylated nuclear proteins at the single cell level. Nuclear AF488 dye intensities are compared to the mean value for DMSO treated cells (MIN) to report percent of inhibition for each compound-treated well.
In this assay, the cell potency (EC50) of each compound was determined from a ten point (1:3 serial dilution; top compound concentration of 10000 nM) titration curve using the following outlined procedure. Each well of a BD falcon collagen coated black/clear bottom 384-well plate was seeded with 4000 MCF-7 cells in 30 pal media and allowed to attach for 5 hours. Media is ATCC-formulated Eagle's Minimum Essential Medium, Catalog No. 30-2003. The following components were added to the base medium: 0.01 mg/mL human recombinant insulin; fetal bovine serum to a final concentration of 10%. Additional 30 pal of media containing 2× compounds were added to each well. Cells were treated for 3 days in 37° C. CO2 incubator. On day 3, cells were fixed with Cytofix, permeabilized with 0.4% Triton-X-100/Cytofix, and washed with D-PBS without Ca/Mg. Cells were blocked with Licor Odessey blocking reagent for 1 hour at room temperature, followed by incubation with anti-SDMA (1:1000) antibody at 4° C. overnight. 1° antibody was removed, followed by three washings with DPBS without Ca/Mg and 0.05% Tween20. Hoechst (5 μg/mL), Cell Mask deep stain (1:2000) and Alexa488-conjugated goat anti-rabbit IgG (2 μg/mL) was added for 1 hour at room temperature. A final washing step (three washes) was performed before sealing plate for imaging on in Cell Analyzer 2200 or Opera-Phenix. Images from analyzer were uploaded to Columbus for image analysis. IC50 values were determined by 4 parameters robust fit of percent fluorescence units vs. (Log 10) compound concentrations.

One may read the EC50 as the midpoint of the concentration-response curve. Low values mean greater potency, high ones weaker potency. As for `Nc1nc2cc(C[C@@H]3CC[C@@]4(O)[C@@H]3O[C@@H](n3ccc5c(N)ncnc53)[C@@H]4O)ccc2cc1Cl` [Example 67, (2R,3R,3aS,6S,6aR)-6-((2-amino-3-chloroquinolin-7-yl)methyl)-2-(4-amino-7H-pyrrolo[2,3-d]pyrimidin-7-yl)hexahydro-3aH-cyclopenta[b]furan-3,3a-diol], the concentration giving a half-maximal response (EC50) was 1.2 nM. The same measure for `Nc1nc2cc(C[C@@H]3CC[C@@]4(O)[C@@H]3O[C@@H](n3ccc5c(N)ncnc53)[C@@H]4O)cc(F)c2cc1F` [Example 29, (2R,3R,3aS,6S,6aR)-6-[(2-amino-3,5-difluoroquinolin-7-yl)methyl]-2-(4-amino-7H-pyrrolo[2,3-d]pyrimidin-7-yl)hexahydro-3aH-cyclopenta[b]furan-3,3a-diol]: 1.7 nM. The molecule `C[C@]1(CCc2ccc3cc(Br)c(N)nc3c2)O[C@@H](n2ccc3c(N)ncnc32)[C@H](O)[C@]1(C)O` [Example 4, (2R,3S,4R,5R)-2-(2-(2-amino-3-bromoquinolin-7-yl)ethyl)-5-(4-amino-7H-pyrrolo[2,3-d]pyrimidin-7-yl)-2,3-dimethyltetrahydrofuran-3,4-diol] registered an EC50 of 186 nM. Compared with the last molecule, the EC50 is about 110-fold higher. The same measure for `Nc1nc2cc(C[C@@H]3CC[C@@]4(O)[C@@H]3O[C@@H](n3ccc5c(N)ncnc53)[C@@H]4O)ccc2cc1C(F)F` [Example 137, (2R,3R,3aS,6S,6aR)-6-((2-amino-3-(difluoromethyl)quinolin-7-yl)methyl)-2-(4-amino-7H-pyrrolo[2,3-d]pyrimidin-7-yl)hexahydro-2H-cyclopenta[b]furan-3,3a-diol]: 0.8 nM. In the case of `Nc1ncc2c(F)cn([C@@H]3O[C@@H]4[C@@H](Oc5ccc6cc(Br)c(N)nc6c5)CC[C@]4(O)[C@H]3O)c2n1` [Example 130, (2R,3R,3aS,6S,6aR)-6-((2-amino-3-bromoquinolin-7-yl)oxy)-2-(2-amino-5-fluoro-7H-pyrrolo[2,3-d]pyrimidin-7-yl)hexahydro-3aH-cyclopenta[b]furan-3,3a-diol] it was 135 nM.

In turn, `Cc1nc(N)c2ccn([C@@H]3C[C@@H]4[C@H](Cc5ccc6cc(Br)c(N)nc6c5)CC[C@]4(O)[C@H]3O)c2n1` [Example 37, (1S,2R,3aR,4S,6aR)-2-(4-amino-2-methyl-7H-pyrrolo[2,3-d]pyrimidin-7-yI)-4-((2-amino-3-bromoquinolin-7-yl)methyl)hexahydropentalene-1,6a(1H)-diol] displayed an EC50 of 0.6 nM. In the case of `C[C@]1(CCc2ccc3cc(Br)c(N)nc3c2)C[C@@H](n2ccc3c(N)ncnc32)[C@H](O)[C@]1(C)O` [Example 117, (1R,2S,3R,5S)-5-(2-(2-amino-3-bromoquinolin-7-yl)ethyl)-3-(4-amino-7H-pyrrolo[2,3-d]pyrimidin-7-yl)-1,5-dimethylcyclopentane-1,2-diol] it was 8.5 nM; in that of `Nc1nc2cc(C[C@@H]3CC[C@@]4(O)[C@@H]3O[C@@H](n3ccc5c(N)nc(Cl)nc53)[C@@H]4O)ccc2cc1Cl` [Example 47, (2R,3R,3aS,6S,6aR)-2-(4-amino-2-chloro-7H-pyrrolo[2,3-d]pyrimidin-7-yl)-6-[(2-amino-3-chloroquinolin-7-yl)methyl]hexahydro-3aH-cyclopenta[b]furan-3,3a-diol], 1.4 nM. The same measure for `Cc1ncnc2c1ccn2[C@@H]1C[C@@H]2[C@@H](Cc3ccc4cc(F)c(N)nc4c3)CC[C@]2(O)[C@H]1O` [Example 18, (1S,2R,3aR,4R,6aR)-4-((2-amino-3-fluoroquinolin-7-yl)methyl)-2-(4-methyl-7H-pyrrolo[2,3-d]pyrimidin-7-yl)hexahydropentalene-1,6a(1H)-diol]: 10.6 nM; for `Cc1ncnc2c1ccn2[C@@H]1O[C@@H]2[C@@H](Oc3ccc4cc(Cl)c(N)nc4c3)CC[C@]2(O)[C@H]1O` [Example 112, (2R,3R,3aS,6S,6aR)-6-((2-amino-3-chloroquinolin-7-v)oxy)-2-(4-methyl-7H-pyrrolo[2,3-d]pyrimidin-7-yl)hexahydro-2H-cyclopenta[b]furan-3,3a-diol]: 4 nM.
